According to ChEMBL document CHEMBL1131939, “The synthesis and P388 cytotoxicity of mycalazol 11 and related 5-acyl-2-hydroxymethylpyrroles” (1999):
In brackets after ≈: the same amount, converted by molar mass.

What follows are molecules tested on P388 (assay: In vitro cytotoxicity against the P388 murine leukemia cell line was determined). Details: Mus musculus, read-out: ID50 (the source's name).
Assay type: functional

Row | SMILES | IC50
1 | CCCCCCCCCCCCCCCCCCC(=O)c1ccc(CO)[nH]1 | 24 µg/mL (≈ 63.6 µM)
2 | CCCCCCCCCCCC(=O)c1ccc(CO)[nH]1 | 21 µg/mL (≈ 75.2 µM)
3 | CCCCCCCCCCCCC(=O)c1ccc(CO)[nH]1 | 52 µg/mL (≈ 177 µM)
4 | CCCCCC(=O)c1ccc(CO)[nH]1 | 78 µg/mL (≈ 399 µM)
